Data taken from ChEMBL document CHEMBL5154749 (Eur J Med Chem, 2022).
Activity calls are given as the source filed them. The rule behind the calls is not given here.

Experiments:
LoVo [1] = assay: Induction of DNA damage in human LoVo cells deficient in ATM at 1 uM measured after 3 days by immunofluorescence assay; type: functional, cell-based; conditions: time 3.0 day
MCF7 = assay: Antiproliferative activity against ATM proficient human MCF7 cells assessed as reduction in cell viability incubated for 72 hrs by MTT assay; type: functional, cell-based; conditions: dose 0.001-100 µM, DDE = dose-dependent effect
Granta-519 = assay: Antiproliferative activity against ATM-deficient human Granta-519 cells assessed as reduction in cell viability incubated for 72 hrs by MTT assay; type: functional, cell-based; conditions: dose 0.001-100 µM, DDE = dose-dependent effect
NCI-H23 = assay: Antiproliferative activity against ATM-deficient human NCI-H23 cells assessed as reduction in cell viability incubated for 72 hrs by MTT assay; type: functional, cell-based; conditions: dose 0.001-100 µM, DDE = dose-dependent effect
HepG2 = assay: Antiproliferative activity against ATM proficient human HepG2 cells assessed as reduction in cell viability incubated for 72 hrs by MTT assay; type: functional, cell-based; conditions: dose 0.001-100 µM, DDE = dose-dependent effect
LoVo [2] = assay: Induction of apoptosis in human LoVo cells deficient in ATM assessed as viable cells at 1 uM measured after 24 hrs by Annexin V-FITC/Propidium iodide staining based flow cytometry analysis (reference value: 91.64%); type: functional; conditions: read-out: Activity
LoVo [3] = assay: Induction of apoptosis in human LoVo cells deficient in ATM assessed as necrotic cells at 3 uM measured after 24 hrs by Annexin V-FITC/Propidium iodide staining based flow cytometry analysis (reference value: 0.84%); type: functional
HT-29 [4] = assay: Induction of apoptosis in human HT-29 cells assessed as early apoptotic cells at 0.3 uM measured after 48 hrs by Annexin V-FITC/Propidium iodide staining based flow cytometry analysis (reference value: 1.55%); type: functional
HT-29 [5] = assay: Induction of apoptosis in human HT-29 cells assessed as viable cells at 0.3 uM measured after 48 hrs by Annexin V-FITC/Propidium iodide staining based flow cytometry analysis (reference value: 97.01%); type: functional; conditions: read-out: Activity
HT-29 [6] = assay: Induction of apoptosis in human HT-29 cells assessed as early apoptotic cells at 1 uM measured after 48 hrs by Annexin V-FITC/Propidium iodide staining based flow cytometry analysis (reference value: 1.55%); type: functional
HT-29 [7] = assay: Induction of apoptosis in human HT-29 cells assessed as viable cells at 1 uM measured after 48 hrs by Annexin V-FITC/Propidium iodide staining based flow cytometry analysis (reference value: 97.01%); type: functional; conditions: read-out: Activity
HT-29 [8] = assay: Induction of apoptosis in human HT-29 cells assessed as late apoptotic cells at 1 uM measured after 48 hrs by Annexin V-FITC/Propidium iodide staining based flow cytometry analysis (reference value: 0.71%); type: functional
HT-29 [9] = assay: Induction of apoptosis in human HT-29 cells assessed as necrotic cells at 3 uM measured after 48 hrs by Annexin V-FITC/Propidium iodide staining based flow cytometry analysis (reference value: 0.73%); type: functional
HT-29 [10] = assay: Induction of apoptosis in human HT-29 cells assessed as viable cells at 0.3 uM measured after 48 hrs in presence of AZD1390 by Annexin V-FITC/Propidium iodide staining based flow cytometry analysis (reference value: 95.33%); type: functional; conditions: read-out: Activity
HT-29 [11] = assay: Induction of apoptosis in human HT-29 cells assessed as late apoptotic cells at 0.3 uM measured after 48 hrs in presence of AZD1390 by Annexin V-FITC/Propidium iodide staining based flow cytometry analysis (reference value: 0.63%); type: functional
HT-29 [12] = assay: Induction of apoptosis in human HT-29 cells assessed as necrotic cells at 1 uM measured after 48 hrs in presence of AZD1390 by Annexin V-FITC/Propidium iodide staining based flow cytometry analysis (reference value: 0.23%); type: functional
HT-29 [13] = assay: Induction of apoptosis in human HT-29 cells assessed as late apoptotic cells at 1 uM measured after 48 hrs in presence of AZD1390 by Annexin V-FITC/Propidium iodide staining based flow cytometry analysis (reference value: 0.63%); type: functional
HT-29 [14] = assay: Induction of apoptosis in human HT-29 cells assessed as viable cells at 3 uM measured after 48 hrs in presence of AZD1390 by Annexin V-FITC/Propidium iodide staining based flow cytometry analysis (reference value: 95.33%); type: functional; conditions: read-out: Activity
[15] = Half life in Sprague-Dawley rat at 10 mg/kg, po measured at 0.083 to 24 hrs by LC-MS/MS method; type: ADME, organism-based; conditions: in vivo, time 0.083-24 hrs
[16] = Cmax in Sprague-Dawley rat at 10 mg/kg, po measured at 0.083 to 24 hrs by LC-MS/MS method; type: ADME, organism-based; set-up: time 0.083-24 hrs, dose 10 mg/kg, route po; conditions: in vivo
[17] = AUC (0 to infinity) in Sprague-Dawley rat at 10 mg/kg, po measured at 0.083 to 24 hrs by LC-MS/MS method; type: ADME, organism-based; set-up: time lower 0.083 hrs, dose 10 mg/kg, time upper 24 hrs, route po; conditions: in vivo
LoVo [18] = assay: Antitumor activity against human LoVo cells xenografted in NOD/SCID mouse assessed as tumor growth inhibition at 100 mg/kg, po BID for 30 days measured every 2 to 3 days; type: functional; conditions: 720 h, time 30 day, read-out: TGI
[19] = Toxicity in NOD/SCID mouse xenografted with human LoVo cells assessed as damage in liver at 50 to 100 mg/kg, po administered bid for 30 days measured after 2 hrs post last dose by H and E staining method; type: organism-based; conditions: in vivo, 720 h, dose 50-100 mg/kg, time 30 day
[20] = Toxicity in NOD/SCID mouse xenografted with human LoVo cells assessed as damage in lung at 50 to 100 mg/kg, po administered bid for 30 days measured after 2 hrs post last dose by H and E staining method; type: organism-based; conditions: in vivo, 720 h, dose 50-100 mg/kg, time 30 day
LoVo [21] = assay: In vivo induction of DNA damage in human LoVo cells xenografted in NOD/SCID mouse assessed as increase in gamma H2AX level administered orally twice a day for 30 days by immuno histochemical analysis; type: functional, organism-based; conditions: dose 50-100 mg/kg, route po, time 30.0 day, DDE = dose-dependent effect
HT-29 [22] = assay: Induction of DNA damage in human HT-29 cells proficient in ATM at 1 uM measured after 3 days in presence of AZD1390 by immunofluorescence assay; type: functional, cell-based; conditions: time 3.0 day
[23] = molecular target: T1, Serine/threonine-protein kinase ATR (Homo sapiens, UniProt Q13535); assay: Inhibition of ATR signalling in ATM-deficient human LoVo cells assessed as change in expression of ATR at up to 3 uM incubated for 1 hr followed by hydroxyurea addition measured after 4 hrs by Western blot analysis; type: cell-based; conditions: time 5.0 hrs
T1 sequence (Q13535 whole entry, looked up): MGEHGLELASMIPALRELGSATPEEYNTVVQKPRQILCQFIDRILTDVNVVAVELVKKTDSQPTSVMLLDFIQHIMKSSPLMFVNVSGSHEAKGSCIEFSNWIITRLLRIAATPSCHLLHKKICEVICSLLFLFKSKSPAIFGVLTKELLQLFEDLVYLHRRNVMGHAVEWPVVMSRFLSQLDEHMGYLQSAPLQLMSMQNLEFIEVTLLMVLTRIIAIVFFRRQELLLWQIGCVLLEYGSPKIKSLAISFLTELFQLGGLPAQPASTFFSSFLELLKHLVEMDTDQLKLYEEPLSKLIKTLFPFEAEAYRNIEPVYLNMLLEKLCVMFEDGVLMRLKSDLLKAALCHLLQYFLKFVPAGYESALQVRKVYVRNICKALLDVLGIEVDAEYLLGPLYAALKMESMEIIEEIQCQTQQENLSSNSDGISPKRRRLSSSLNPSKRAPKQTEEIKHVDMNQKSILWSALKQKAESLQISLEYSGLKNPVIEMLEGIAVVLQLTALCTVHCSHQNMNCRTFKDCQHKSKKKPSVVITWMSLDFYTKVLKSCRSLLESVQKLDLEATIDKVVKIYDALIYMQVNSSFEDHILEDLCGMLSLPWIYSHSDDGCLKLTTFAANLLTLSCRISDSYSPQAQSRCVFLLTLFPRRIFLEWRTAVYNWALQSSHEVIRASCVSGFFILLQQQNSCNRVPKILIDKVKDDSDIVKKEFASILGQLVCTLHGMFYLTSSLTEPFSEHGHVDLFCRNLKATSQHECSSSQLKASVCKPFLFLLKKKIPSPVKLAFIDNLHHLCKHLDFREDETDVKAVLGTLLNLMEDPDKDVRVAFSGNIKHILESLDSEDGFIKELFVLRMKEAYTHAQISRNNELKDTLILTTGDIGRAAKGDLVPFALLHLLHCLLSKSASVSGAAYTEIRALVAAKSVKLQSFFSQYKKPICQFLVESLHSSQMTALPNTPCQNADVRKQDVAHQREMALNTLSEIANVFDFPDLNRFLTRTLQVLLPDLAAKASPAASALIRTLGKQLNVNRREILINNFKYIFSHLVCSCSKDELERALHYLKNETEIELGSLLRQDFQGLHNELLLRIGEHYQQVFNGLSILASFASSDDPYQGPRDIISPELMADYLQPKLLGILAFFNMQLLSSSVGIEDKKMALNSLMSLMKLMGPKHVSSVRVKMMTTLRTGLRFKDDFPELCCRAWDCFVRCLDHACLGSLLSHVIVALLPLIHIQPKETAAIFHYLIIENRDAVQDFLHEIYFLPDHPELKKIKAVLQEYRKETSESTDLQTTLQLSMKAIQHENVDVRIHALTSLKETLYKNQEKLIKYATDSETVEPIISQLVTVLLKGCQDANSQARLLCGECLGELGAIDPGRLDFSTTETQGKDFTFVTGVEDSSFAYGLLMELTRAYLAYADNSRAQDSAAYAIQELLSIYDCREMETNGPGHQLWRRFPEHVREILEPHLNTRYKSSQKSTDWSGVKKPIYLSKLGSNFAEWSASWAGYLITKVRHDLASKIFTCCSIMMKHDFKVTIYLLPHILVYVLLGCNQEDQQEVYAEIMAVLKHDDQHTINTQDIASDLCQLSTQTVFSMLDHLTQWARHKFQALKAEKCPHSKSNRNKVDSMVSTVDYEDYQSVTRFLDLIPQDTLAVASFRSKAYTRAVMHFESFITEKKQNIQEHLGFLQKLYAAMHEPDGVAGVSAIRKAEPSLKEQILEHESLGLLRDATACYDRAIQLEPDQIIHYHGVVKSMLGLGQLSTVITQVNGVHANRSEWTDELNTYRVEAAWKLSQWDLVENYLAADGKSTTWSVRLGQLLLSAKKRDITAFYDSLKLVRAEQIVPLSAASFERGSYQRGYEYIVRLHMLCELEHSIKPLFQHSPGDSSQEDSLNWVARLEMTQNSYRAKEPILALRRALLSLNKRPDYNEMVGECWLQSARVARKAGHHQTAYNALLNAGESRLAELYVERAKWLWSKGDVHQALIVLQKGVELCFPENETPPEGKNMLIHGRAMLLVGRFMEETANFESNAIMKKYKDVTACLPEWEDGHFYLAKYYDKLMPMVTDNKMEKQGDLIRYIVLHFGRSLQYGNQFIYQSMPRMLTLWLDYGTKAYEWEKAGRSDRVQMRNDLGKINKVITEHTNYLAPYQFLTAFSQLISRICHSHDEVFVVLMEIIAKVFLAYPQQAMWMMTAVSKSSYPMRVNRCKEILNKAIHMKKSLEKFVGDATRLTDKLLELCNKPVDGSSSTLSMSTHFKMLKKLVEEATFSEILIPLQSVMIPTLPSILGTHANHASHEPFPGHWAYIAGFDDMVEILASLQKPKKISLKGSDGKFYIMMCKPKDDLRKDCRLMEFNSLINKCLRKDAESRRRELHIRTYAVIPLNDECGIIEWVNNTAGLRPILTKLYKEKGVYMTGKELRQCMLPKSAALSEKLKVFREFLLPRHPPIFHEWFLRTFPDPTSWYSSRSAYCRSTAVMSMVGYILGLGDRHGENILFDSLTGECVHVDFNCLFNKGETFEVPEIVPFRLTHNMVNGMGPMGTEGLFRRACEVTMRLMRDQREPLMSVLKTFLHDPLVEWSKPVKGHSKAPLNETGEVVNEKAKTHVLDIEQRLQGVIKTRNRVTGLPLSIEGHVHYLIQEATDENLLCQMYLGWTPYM

[24] = molecular target: T1, Serine/threonine-protein kinase ATR; assay: Inhibition of ATR signalling in ATM-deficient human LoVo cells assessed as change in expression of Chk1 at up to 3 uM incubated for 1 hr followed by hydroxyurea addition measured after 4 hrs by Western blot analysis; type: cell-based; conditions: time 5.0 hrs
LoVo [25] = assay: Antimigratory activity in human LoVo cells assessed as suppression of cell migration measured at up to 1 uM by wound healing assay; type: functional, cell-based; conditions: time <= 48.0 hrs, TDE = time-dependent effect
[26] = molecular target: T1, Serine/threonine-protein kinase ATR; assay: In vivo inhibition of ATR in human LoVo cells xenografted in NOD/SCID mouse assessed as inhibition of ATR phosphorylation at 50 to 100 mg/kg, po administered twice a day for 30 days by Western blot analysis; conditions: dose 50-100 mg/kg, time 30.0 day

## C[C@@H]1COCCN1c1nc(-c2cccc3[nH]ccc23)nc2ccc(-c3ccnn3C)cc12
LoVo [1]
  Activity: Active
MCF7
  Activity: Dde
Granta-519
  Activity: Dde
NCI-H23
  Activity: Dde
HepG2
  Activity: Dde
LoVo [2]
  viability at 1 µM: 47.8%
LoVo [3]
  Activity: 3.01%
HT-29 [4]
  Activity: 1.47%
HT-29 [5]
  viability at 0.3 µM: 95.4%
HT-29 [6]
  Activity: 2.32%
HT-29 [7]
  viability at 1 µM: 94.7%
HT-29 [8]
  Activity: 1.92%
HT-29 [9]
  Activity: 1.71%
HT-29 [10]
  viability at 0.3 µM: 79%
HT-29 [11]
  Activity: 9.85%
HT-29 [12]
  Activity: 2.1%
HT-29 [13]
  Activity: 9.54%
HT-29 [14]
  viability at 3 µM: 58%
[15]
  half-life: 68.4 min
[16]
  Cmax: 895 ng/mL
[17]
  AUC(0-inf): 2720 ng·h/mL
LoVo [18]
  inhibition in vivo at 100 mg/kg: 72.8%
[19]
  Activity: Non-Toxic
[20]
  Activity: Non-Toxic
LoVo [21]
  Activity: Dde
HT-29 [22]
  Activity: Active
[23]
  inhibition: Active
[24]
  inhibition: Active
LoVo [25]
  Activity: Tde
[26]
  Activity: Active
